Key:
Test in all cases: KINOMEscan kinase binding assay
[1] = target: T1, 384 kinases from the human genome (Homo sapiens, UniProt O14965); settings: kinase AURKA (Entrez AURKA)
T1 construct: purchased Eurofin/DiscoverX
Outline: (§1)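 Competition binding (KINOMEscan) across 384 human kinases with compound at 10 µM. Ligand binding was expressed relative to DMSO (100%) as the average of duplicates from one experiment. S(10) selectivity score was derived.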

[2] = target: T2, 384 kinases from the human genome (Homo sapiens, UniProt O94806); settings: kinase PRKD3 (Entrez PRKD3)
T2 construct: purchased Eurofin/DiscoverX
Outline: as §1

[3] = target: T3, 384 kinases from the human genome (Homo sapiens, UniProt P09619)
T3 construct: purchased Eurofin/DiscoverX
T3 sequence (P09619 33-1106): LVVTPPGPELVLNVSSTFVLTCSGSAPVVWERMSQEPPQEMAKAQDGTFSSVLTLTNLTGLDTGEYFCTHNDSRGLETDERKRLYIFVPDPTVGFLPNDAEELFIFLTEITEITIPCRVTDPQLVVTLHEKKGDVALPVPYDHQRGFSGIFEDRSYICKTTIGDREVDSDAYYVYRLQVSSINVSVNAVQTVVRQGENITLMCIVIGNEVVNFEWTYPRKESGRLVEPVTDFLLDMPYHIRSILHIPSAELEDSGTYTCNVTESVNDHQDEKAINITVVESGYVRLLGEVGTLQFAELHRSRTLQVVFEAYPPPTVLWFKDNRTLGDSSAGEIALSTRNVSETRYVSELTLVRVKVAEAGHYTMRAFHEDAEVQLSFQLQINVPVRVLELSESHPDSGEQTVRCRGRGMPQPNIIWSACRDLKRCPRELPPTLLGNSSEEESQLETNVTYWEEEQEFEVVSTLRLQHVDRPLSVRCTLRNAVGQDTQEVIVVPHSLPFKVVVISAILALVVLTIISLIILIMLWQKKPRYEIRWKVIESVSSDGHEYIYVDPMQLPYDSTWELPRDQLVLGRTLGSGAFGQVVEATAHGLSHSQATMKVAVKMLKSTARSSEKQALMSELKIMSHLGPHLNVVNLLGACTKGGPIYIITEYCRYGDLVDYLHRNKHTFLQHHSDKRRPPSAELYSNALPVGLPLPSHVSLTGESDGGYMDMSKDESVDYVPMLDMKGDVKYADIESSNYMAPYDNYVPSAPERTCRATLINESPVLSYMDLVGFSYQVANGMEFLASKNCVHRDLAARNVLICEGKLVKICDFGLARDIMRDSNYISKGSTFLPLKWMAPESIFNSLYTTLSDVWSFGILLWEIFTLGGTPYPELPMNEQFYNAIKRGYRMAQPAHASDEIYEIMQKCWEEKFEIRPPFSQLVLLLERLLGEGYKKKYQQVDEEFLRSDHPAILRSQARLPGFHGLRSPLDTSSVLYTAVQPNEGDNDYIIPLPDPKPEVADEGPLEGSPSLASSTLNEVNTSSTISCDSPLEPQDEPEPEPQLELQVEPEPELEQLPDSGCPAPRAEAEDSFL
Outline: as §1

[4] = target: T4, 384 kinases from the human genome (Homo sapiens, UniProt P16234); settings: kinase PDGFRA (Entrez PDGFRA)
T4 construct: purchased Eurofin/DiscoverX
Outline: as §1

[5] = target: T5, 384 kinases from the human genome (Homo sapiens, UniProt P21860); settings: kinase ERBB3 (Entrez ERBB3)
T5 construct: purchased Eurofin/DiscoverX
Outline: as §1

[6] = target: T6, 384 kinases from the human genome (Homo sapiens, UniProt P30530); settings: kinase AXL (Entrez AXL)
T6 construct: purchased Eurofin/DiscoverX
Outline: as §1

[7] = target: T7, 384 kinases from the human genome (Homo sapiens, UniProt P35968); settings: kinase VEGFR2 (Entrez KDR)
T7 construct: purchased Eurofin/DiscoverX
Outline: as §1

[8] = target: T8, 384 kinases from the human genome (Homo sapiens, UniProt P42680); settings: kinase TEC (Entrez TEC)
T8 construct: purchased Eurofin/DiscoverX
Outline: as §1

[9] = target: T9, 384 kinases from the human genome (Homo sapiens, UniProt P51617); settings: kinase IRAK1 (Entrez IRAK1)
T9 construct: purchased Eurofin/DiscoverX
Outline: as §1

[10] = target: T10, 384 kinases from the human genome (Homo sapiens, UniProt P51956); settings: kinase NEK3 (Entrez NEK3)
T10 construct: purchased Eurofin/DiscoverX
Outline: as §1

[11] = target: T11, 384 kinases from the human genome (Homo sapiens, UniProt P54756); settings: kinase EPHA5 (Entrez EPHA5)
T11 construct: purchased Eurofin/DiscoverX
Outline: as §1

[12] = target: T12, 384 kinases from the human genome (Homo sapiens, UniProt P54762); settings: kinase EPHB1 (Entrez EPHB1)
T12 construct: purchased Eurofin/DiscoverX
Outline: as §1

[13] = target: T13, 384 kinases from the human genome (Homo sapiens, UniProt P80192); settings: kinase MLK1 (Entrez MAP3K9)
T13 construct: purchased Eurofin/DiscoverX
Outline: as §1

[14] = target: T14, 384 kinases from the human genome (Homo sapiens, UniProt Q13233); settings: kinase MAP3K1 (Entrez MAP3K1)
T14 construct: purchased Eurofin/DiscoverX
Outline: as §1

[15] = target: T15, 384 kinases from the human genome (Homo sapiens, UniProt Q15303); settings: kinase ERBB4 (Entrez ERBB4)
T15 construct: purchased Eurofin/DiscoverX
T15 sequence (Q15303 26-1308): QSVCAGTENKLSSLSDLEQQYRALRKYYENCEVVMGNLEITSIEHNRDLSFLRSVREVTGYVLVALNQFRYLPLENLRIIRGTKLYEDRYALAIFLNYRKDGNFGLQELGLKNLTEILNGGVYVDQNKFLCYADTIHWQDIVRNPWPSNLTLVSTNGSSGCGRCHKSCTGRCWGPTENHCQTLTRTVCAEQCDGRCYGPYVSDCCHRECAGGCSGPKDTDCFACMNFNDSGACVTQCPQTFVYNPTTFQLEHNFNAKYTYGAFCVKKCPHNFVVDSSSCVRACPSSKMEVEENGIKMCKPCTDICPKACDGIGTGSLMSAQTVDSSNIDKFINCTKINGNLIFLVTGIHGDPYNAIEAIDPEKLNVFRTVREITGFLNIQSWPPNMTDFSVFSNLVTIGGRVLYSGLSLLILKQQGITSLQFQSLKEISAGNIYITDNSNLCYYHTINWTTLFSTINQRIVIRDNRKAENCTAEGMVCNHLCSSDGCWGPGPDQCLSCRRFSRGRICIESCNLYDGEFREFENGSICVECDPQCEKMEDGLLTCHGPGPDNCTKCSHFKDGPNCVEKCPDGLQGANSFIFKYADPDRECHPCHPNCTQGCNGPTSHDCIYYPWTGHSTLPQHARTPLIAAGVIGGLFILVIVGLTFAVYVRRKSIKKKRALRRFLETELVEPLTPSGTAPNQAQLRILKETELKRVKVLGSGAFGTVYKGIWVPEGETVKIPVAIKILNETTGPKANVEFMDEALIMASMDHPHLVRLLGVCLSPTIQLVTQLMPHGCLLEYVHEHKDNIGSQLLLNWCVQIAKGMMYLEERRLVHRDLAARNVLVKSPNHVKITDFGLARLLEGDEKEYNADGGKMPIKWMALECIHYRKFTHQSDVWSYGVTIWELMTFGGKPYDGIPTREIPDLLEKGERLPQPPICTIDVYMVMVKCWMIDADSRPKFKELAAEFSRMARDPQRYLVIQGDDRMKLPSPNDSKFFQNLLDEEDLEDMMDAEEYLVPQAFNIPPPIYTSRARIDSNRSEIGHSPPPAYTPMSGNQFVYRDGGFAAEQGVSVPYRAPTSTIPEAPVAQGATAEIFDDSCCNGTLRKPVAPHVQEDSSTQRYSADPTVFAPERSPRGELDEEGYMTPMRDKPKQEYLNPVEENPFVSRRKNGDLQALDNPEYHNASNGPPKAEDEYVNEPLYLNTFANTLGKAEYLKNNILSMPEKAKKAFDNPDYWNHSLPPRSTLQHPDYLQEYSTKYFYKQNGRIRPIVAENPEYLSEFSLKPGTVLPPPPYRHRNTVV
Outline: as §1

[16] = target: T16, 384 kinases from the human genome (Homo sapiens, UniProt Q5VT25); settings: kinase MRCKA (Entrez CDC42BPA)
T16 construct: purchased Eurofin/DiscoverX
Outline: as §1

[17] = target: T17, 384 kinases from the human genome (Homo sapiens, UniProt Q6PHR2); settings: kinase ULK3 (Entrez ULK3)
T17 construct: purchased Eurofin/DiscoverX
Outline: as §1

[18] = target: T18, 384 kinases from the human genome (Homo sapiens, UniProt Q8N752); settings: kinase CSNK1A1L (Entrez CSNK1A1L)
T18 construct: purchased Eurofin/DiscoverX
T18 sequence (Q8N752 whole entry): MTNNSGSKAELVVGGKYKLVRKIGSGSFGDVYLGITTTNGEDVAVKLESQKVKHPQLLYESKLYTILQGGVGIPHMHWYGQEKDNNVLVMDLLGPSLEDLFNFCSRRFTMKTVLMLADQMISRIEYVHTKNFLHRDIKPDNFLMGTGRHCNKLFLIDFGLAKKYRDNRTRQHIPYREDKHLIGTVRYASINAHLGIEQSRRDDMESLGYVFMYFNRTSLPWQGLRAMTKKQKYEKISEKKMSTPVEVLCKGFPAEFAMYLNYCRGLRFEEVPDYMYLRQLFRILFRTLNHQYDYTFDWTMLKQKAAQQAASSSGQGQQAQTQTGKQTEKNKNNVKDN
Outline: as §1

[19] = target: T19, 384 kinases from the human genome (Homo sapiens, UniProt Q8NE63); settings: kinase HIPK4 (Entrez HIPK4)
T19 construct: purchased Eurofin/DiscoverX
Outline: as §1

[20] = target: T20, 384 kinases from the human genome (Homo sapiens, UniProt Q8TBX8); settings: kinase PIP5K2C (Entrez PIP4K2C)
T20 construct: purchased Eurofin/DiscoverX
T20 sequence (Q8TBX8 whole entry): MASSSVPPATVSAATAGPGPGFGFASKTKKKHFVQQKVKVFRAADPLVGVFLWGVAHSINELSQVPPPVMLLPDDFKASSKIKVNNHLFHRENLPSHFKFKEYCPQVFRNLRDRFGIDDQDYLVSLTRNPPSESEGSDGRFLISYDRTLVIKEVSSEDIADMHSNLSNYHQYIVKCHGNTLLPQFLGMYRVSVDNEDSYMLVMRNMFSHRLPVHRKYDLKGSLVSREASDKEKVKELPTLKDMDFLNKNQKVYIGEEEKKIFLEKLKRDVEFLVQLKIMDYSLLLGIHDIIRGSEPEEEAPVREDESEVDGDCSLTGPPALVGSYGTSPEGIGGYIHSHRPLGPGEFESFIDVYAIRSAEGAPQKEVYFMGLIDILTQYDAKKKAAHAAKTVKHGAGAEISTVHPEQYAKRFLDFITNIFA
Outline: as §1

[21] = target: T21, 384 kinases from the human genome (Homo sapiens, UniProt Q8TD08); settings: kinase ERK8 (Entrez MAPK15)
T21 construct: purchased Eurofin/DiscoverX
T21 sequence (Q8TD08 whole entry): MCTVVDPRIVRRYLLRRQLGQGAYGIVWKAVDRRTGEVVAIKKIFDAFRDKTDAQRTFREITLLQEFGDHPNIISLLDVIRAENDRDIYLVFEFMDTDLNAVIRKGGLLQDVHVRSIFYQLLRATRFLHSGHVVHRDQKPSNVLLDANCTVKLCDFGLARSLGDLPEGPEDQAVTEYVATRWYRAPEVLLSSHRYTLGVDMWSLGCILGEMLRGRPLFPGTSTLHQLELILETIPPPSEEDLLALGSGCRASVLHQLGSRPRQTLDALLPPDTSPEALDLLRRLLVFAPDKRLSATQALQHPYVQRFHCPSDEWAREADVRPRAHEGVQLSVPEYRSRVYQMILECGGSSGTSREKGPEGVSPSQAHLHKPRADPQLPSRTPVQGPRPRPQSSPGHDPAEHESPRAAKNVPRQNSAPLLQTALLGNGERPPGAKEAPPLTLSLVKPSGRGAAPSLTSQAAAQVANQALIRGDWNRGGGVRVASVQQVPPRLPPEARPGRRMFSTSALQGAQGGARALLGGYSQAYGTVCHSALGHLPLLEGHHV
Outline: as §1

[22] = target: T22, 384 kinases from the human genome (Homo sapiens, UniProt Q9BYT3); settings: kinase STK33 (Entrez STK33)
T22 construct: purchased Eurofin/DiscoverX
T22 sequence (Q9BYT3 whole entry): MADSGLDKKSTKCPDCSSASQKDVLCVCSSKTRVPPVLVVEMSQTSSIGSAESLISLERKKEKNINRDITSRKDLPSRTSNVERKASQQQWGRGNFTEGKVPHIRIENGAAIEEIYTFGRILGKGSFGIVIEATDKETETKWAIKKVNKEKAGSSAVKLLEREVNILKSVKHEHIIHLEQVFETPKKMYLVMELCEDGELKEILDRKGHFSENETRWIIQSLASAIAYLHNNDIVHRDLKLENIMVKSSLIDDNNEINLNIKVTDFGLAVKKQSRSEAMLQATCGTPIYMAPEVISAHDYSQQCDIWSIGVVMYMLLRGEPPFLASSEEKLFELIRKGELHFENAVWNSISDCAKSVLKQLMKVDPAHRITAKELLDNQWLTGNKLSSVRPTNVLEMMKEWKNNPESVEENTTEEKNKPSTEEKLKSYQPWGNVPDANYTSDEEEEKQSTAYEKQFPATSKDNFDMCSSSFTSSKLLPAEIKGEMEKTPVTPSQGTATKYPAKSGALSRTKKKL
Outline: as §1

[23] = target: T23, 384 kinases from the human genome (Homo sapiens, UniProt Q9H2K8); settings: kinase TAOK3 (Entrez TAOK3)
T23 construct: purchased Eurofin/DiscoverX
Outline: as §1

[24] = target: T24, 384 kinases from the human genome (Homo sapiens, UniProt Q9NY57); settings: kinase YANK2 (Entrez STK32B)
T24 construct: purchased Eurofin/DiscoverX
Outline: as §1

[25] = target: T25, 384 kinases from the human genome (Homo sapiens, UniProt Q9NYL2); settings: kinase ZAK (Entrez ZAK)
T25 construct: purchased Eurofin/DiscoverX
T25 sequence (Q9NYL2 whole entry): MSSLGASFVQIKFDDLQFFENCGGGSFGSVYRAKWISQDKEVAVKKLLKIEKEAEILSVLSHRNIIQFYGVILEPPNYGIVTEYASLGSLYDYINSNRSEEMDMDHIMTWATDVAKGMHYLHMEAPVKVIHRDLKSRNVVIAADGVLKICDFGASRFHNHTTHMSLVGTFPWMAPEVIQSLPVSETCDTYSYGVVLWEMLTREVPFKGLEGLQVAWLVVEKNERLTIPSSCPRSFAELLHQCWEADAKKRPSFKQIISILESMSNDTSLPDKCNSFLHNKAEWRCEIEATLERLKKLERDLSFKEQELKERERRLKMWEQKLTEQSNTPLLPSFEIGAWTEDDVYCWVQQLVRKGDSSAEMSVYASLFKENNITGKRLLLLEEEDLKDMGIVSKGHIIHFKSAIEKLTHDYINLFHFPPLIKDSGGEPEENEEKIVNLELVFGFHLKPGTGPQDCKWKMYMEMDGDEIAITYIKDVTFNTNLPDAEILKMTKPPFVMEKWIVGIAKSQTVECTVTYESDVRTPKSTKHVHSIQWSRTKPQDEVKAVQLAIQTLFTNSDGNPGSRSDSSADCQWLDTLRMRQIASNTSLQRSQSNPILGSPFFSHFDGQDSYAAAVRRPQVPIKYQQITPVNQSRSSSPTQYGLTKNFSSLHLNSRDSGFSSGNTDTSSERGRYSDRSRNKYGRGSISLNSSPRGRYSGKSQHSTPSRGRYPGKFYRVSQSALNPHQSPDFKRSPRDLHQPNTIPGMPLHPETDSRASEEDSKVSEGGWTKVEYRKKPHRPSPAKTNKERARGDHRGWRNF
Outline: as §1

[26] = target: T26, 384 kinases from the human genome (Homo sapiens, UniProt Q9Y2H1); settings: kinase NDR2 (Entrez STK38L)
T26 construct: purchased Eurofin/DiscoverX
Outline: as §1

`CC(C)C(=O)N1CCN(c2ccc(NC(=O)c3cc4ccccc4o3)cc2Cl)CC1` [Compound 21] was tested, and the “Percent Control” value [1] was 89%, the “Percent Control” value [2] was 98% and the “PDGFRB binding to its ligand affected” value ([3]; 10 µM of 21, compared to DMSO (100%)) was “more than 90%”. The “Percent Control” value ([3]; kinase PDGFRB (Entrez PDGFRB)) was 2.6%, the “Percent Control” value [4] was 72% and the “Percent Control” value [5] was 83%. For the same compound, the “Percent Control” value [6] was 69%, the “Percent Control” value [7] was 93% and the “Percent Control” value [8] was 98%. For the same compound, the “Percent Control” value [9] was 99%, the “Percent Control” value [10] was 100% and the “Percent Control” value [11] was 100%. For the same compound, the “Percent Control” value [12] was 94%, the “Percent Control” value [13] was 96% and the “Percent Control” value [14] was 92%. The “Percent Control” value [15] was 91%, the “Percent Control” value [16] was 68% and the “Percent Control” value [17] was 87%. For the same compound, the “Percent Control” value [18] was 98%, the “Percent Control” value [19] was 100% and the “Percent Control” value [20] was 65%. For the same compound, the “Percent Control” value [21] was 100%, the “Percent Control” value [22] was 100% and the “Percent Control” value [23] was 100%. For the same compound, the “Percent Control” value [24] was 98%, the “Percent Control” value [25] was 72% and the “Percent Control” value [26] was 77%.

Reference: paper PMC8333425, “Discovery of a dual Ras and ARF6 inhibitor from a GPCR endocytosis screen” (Nature Communications, 2021)
